These are literature values, as cited in patent US20220372042A1, “CONDENSED HETEROCYCLES AS BCL-2 INHIBITORS” (Newave Pharmaceutical Inc., priority 2019, published 2022).

In one series the test system is established tumors. The conditions noted are these: mouse, in vivo.
For series [1] the following is noted: in vivo.
The next series concerns the target T1, Bcl-w (Homo sapiens, UniProt Q92843).
T1 sequence (Q92843 1-193): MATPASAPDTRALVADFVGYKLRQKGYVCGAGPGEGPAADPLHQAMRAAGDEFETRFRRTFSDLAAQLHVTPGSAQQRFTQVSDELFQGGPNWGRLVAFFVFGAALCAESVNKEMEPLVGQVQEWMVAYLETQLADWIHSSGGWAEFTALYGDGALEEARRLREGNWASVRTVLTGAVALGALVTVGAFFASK

In series [2] the test system is xenograft models of small-cell lung cancer and acute lymphoblastic leukemia. Conditions: single agent.
Another series deals with circulating platelets. The conditions noted are these: patients, clinical trial.
In a further series the test system is SCLC H146 cell line. Conditions: read-out: IC50 against SCLC H146 cell line.
Another series has as its system H345 xenograft. The conditions noted are these: 100 mg/kg/day, H345 xenograft model.
The subject of the next series is CLL. Conditions: average; read-out: average EC50 apoptosis in CLL.
Series [3] concerns CLL who have 17p deletion. Conditions: CLL with 17p deletion.
In a further series the test system is RS4; 11 xenografts. The conditions noted are these: single dose of 100 mg/kg.
Series [4] has as its system DoHH2, Granta-519 xenografts. Conditions: single agent or in combination with Bendamustine and other agents.

A value given as a limit tells only on which side of the number the result lay.

On to `CN(C)CC[C@H](CSc1ccccc1)Nc1ccc(S(=O)(=O)NC(=O)c2ccc(N3CCN(Cc4ccccc4-c4ccc(Cl)cc4)CC3)cc2)cc1[N+](=O)[O-]` [ABT-737], for which the aqueous solubility entry is “low aqueous solubility”. For the same molecule, in the series with established tumors, the “efficacy in animal models” value was “improves survival, causes regression of established tumors, and produces cures in a high percentage of the mice”. Also, the oral bioavailability entry in series [1] was “not orally bioavailable”.

Regarding `CC1(C)CCC(c2ccc(Cl)cc2)=C(CN2CCN(c3ccc(C(=O)NS(=O)(=O)c4ccc(N[C@H](CCN5CCOCC5)CSc5ccccc5)c(S(=O)(=O)C(F)(F)F)c4)cc3)CC2)C1` [ABT-263], the Ki on Bcl-w was ≤ 1 nM. The “tumor response after oral administration alone” value in series [2] is “complete tumor regressions”. Further, the “number of circulating platelets” value in the series with circulating platelets is “rapid, concentration-dependent decrease”. In the series with SCLC H146 cell line, the 50% inhibitory concentration (IC50) was 110 nM. Moreover, in the series with H345 xenograft, the TGI is on record as 80% and the “treated tumors indicating at least a 50% reduction in tumor volume” value is recorded as 20%.

For `CC1(C)CCC(CN2CCN(c3ccc(C(=O)NS(=O)(=O)c4ccc(NCC5CCOCC5)c([N+](=O)[O-])c4)c(Oc4cnc5[nH]ccc5c4)c3)CC2)=C(c2ccc(Cl)cc2)C1` [ABT-199], in the series on CLL, the half-maximal effective concentration (EC50) is 3 nM. The clinical efficacy result in series [3] is listed as “highly efficacious”. In addition, in the series with RS4; 11 xenografts, the “maximal tumor growth inhibition” value was 95% and the tumor growth delay was 152%. Moreover, the xenograft growth entry in series [4] is reported as “inhibits xenograft growth”. The concentration for a half-maximal effect (EC50) with RS4; 11 cells is 8 nM.

What is called Ki is a dissociation constant, usually derived from enzyme kinetics or from competition with a known ligand. For orientation: IC50 means the point on the concentration scale where inhibition reaches its midpoint. The term TGI denotes the reduction of tumour growth relative to the control group. The term EC50 denotes the concentration that produces a half-maximal response.
